Patent US7592336B2, “Hepatitis C virus inhibitors” (Bristol-Myers Squibb Company, priority 2005, dated 2009)

What was measured:
[1] = biological target: T1, HCV NS3/4A protease complex, BMS strain (UniProt P27958, species not given/STRAIN_BMS); assay: FRET peptide assay to monitor HCV NS3/4A proteolytic activity (BMS strain); type: biochemical, HCV genotype 1a; settings: NS3/4A BMS strain; read-out: Activity Range (IC50)
T1 construct: said of H77 and J4L6S, not expressly of BMS; fused on or other part: A three-lysine solubilising tail at the NS4A C-terminus and purification on Ni-NTA are described for the H77 and J4L6S constructs
T1 sequence (P27958 1027-1657, change not shown, one chain of several): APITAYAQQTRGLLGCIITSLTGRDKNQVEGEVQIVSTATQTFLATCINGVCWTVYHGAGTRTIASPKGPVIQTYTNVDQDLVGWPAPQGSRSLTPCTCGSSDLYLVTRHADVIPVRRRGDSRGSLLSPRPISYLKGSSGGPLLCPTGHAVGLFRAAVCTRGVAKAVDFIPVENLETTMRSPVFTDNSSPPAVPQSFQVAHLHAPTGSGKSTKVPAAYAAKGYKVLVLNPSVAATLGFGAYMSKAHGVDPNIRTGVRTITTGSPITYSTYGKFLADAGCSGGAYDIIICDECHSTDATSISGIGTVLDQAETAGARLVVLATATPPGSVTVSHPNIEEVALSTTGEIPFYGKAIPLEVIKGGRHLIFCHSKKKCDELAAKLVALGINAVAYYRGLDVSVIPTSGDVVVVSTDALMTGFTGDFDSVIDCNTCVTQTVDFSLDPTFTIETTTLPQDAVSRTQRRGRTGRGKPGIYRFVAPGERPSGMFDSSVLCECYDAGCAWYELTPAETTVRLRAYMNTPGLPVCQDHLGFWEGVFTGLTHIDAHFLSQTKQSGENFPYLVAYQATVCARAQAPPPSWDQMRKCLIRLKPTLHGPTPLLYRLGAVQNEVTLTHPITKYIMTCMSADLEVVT
Description: HCV NS3 protease complexes, derived from the BMS strain, H77 strain or J4L6S strain, were generated, as described below. These purified recombinant proteins were generated for use in a homogeneous assay (see below) to provide an indication of how effective compounds of the present disclosure would be in inhibiting HCV NS3 proteolytic activity.
Serum from an HCV-infected patient was obtained from Dr. T. Wright, San Francisco Hospital. An engineered full-length cDNA (compliment deoxyribonucleic acid) template of the HCV genome (BMS strain) was constructed from DNA fragments obtained by reverse transcription-PCR (RT-PCR) of serum RNA (ribonucleic acid) and using primers selected on the basis of homology between other genotype 1a strains. From the determination of the entire genome sequence, a genotype 1a was assigned to the HCV isolate according to the classification of Simmonds et al. (See P Simmonds, K A Rose, S Graham, S W Chan, F McOmish, B C Dow, E A Follett, P L Yap and H Marsden, J. Clin. Microbiol., 31(6), 1493-1503 (1993)). […] The infectious clones, H77 (1a genotype) and J4L6S (1b genotype) were obtained from R. Purcell (NIH) and the sequences are published in Genbank (AAB67036, see Yanagi, M., Purcell, R. H., Emerson, S. U. and Bukh, J. Proc. Natl. Acad. Sci. U.S.A. 94(16), 8738-8743 (1997); AF054247, see Yanagi, M., St Claire, M., Shapiro, M., Emerson, S. U., Purcell, R. H. and Bukh, J, Virology 244 (1), 161-172. (1998)).
NS3/4A protease complex-containing fractions were pooled and loaded on a desalting column Superdex-S200 pre-equilibrated with buffer D (25 mM HEPES, pH 7.5, 20% glycerol, 300 mM NaCl, 0.2% Triton X-100, 10 mM βME). Sample was loaded at a flow rate of 1 mL/min. NS3/4A protease complex-containing fractions were pooled and concentrated to approximately 0.5 mg/ml. The purity of the NS3/4A protease complexes, derived from the BMS, H77 and J4L6S strains, were judged to be greater than 90% by SDS-PAGE and mass spectrometry analyses. The enzyme was stored at −80° C., thawed on ice and diluted prior to use in assay buffer.
The purpose of this in vitro assay was to measure the inhibition of HCV NS3 protease complexes, derived from the BMS strain, H77 strain or J4L6S strain, as described above, by compounds of the present disclosure. This assay provides an indication of how effective compounds of the present disclosure would be in inhibiting HCV NS3 proteolytic activity.
In order to monitor HCV NS3/4A protease activity, an NS3/4A peptide substrate was used. The substrate was RET S1 (Resonance Energy Transfer Depsipeptide Substrate; AnaSpec, Inc. cat #22991) (FRET peptide), described by Taliani et al. in Anal. Biochem. 240(2):60-67 (1996). The sequence of this peptide is loosely based on the NS4A/NS4B natural cleavage site for the HCV NS3 protease except there is an ester linkage rather than an amide bond at the cleavage site. The peptide also contains a fluorescence donor, EDANS, near one end of the peptide and an acceptor, DABCYL, near the other end. The fluorescence of the peptide is quenched by […] resonance energy transfer (RET) between the donor and the acceptor, but as the NS3 protease cleaves the peptide the products are released from RET quenching and the fluorescence of the donor becomes apparent.
The peptide substrate was incubated with one of the three recombinant NS3/4A protease complexes, in the absence or presence of a compound of the present disclosure. The inhibitory effects of a compound were determined by monitoring the formation of fluorescent reaction product in real time using a Cytofluor Series 4000.
Assay buffer: 50 mM HEPES, pH 7.5; 0.15M NaCl; 0.1% Triton; 15% Glycerol; 10 mM βME. Substrate: 2 μM final concentration (from a 2 mM stock solution in DMSO stored at −20° C.). HCV NS3/4A protease type 1a (1b), 2-3 nM final concentration (from a 5 μM stock solution in 25 mM HEPES, pH 7.5, 20% glycerol, 300 mM NaCl, 0.2% Triton-X100, 10 mM βME). […]

[2] = system: HCV replicon in HUH-7 cells; assay: HCV replicon FRET assay; type: cell-based, HCV strain 1b; settings: Hepatitis C virus, Huh-7; HCV replicon cell assay; read-out: Activity Range (EC50)
Description: An HCV replicon whole cell system was established as described by Lohmann V, Korner F, Koch J, Herian U, Theilmann L, Bartenschlager R., Science 285(5424):110-3 (1999). This system enabled us to evaluate the effects of our HCV Protease compounds on HCV RNA replication. Briefly, using the HCV strain 1b sequence described in the Lohmann paper (Assession number: AJ238799), an HCV cDNA was synthesized by Operon Technologies, Inc. (Alameda, Calif.), and the full-length replicon was then assembled in plasmid pGem9zf(+) (Promega, Madison, Wis.) using standard molecular biology techniques. The replicon consists of (i) the HCV 5′ UTR fused to the first 12 amino acids of the capsid protein, (ii) the neomycin phosphotransferase gene (neo), (iii) the IRES from encephalomyocarditis virus (EMCV), and (iv) HCV NS3 to NS5B genes and the HCV 3′ UTR. Plasmid DNAs were linearized with ScaI and RNA transcripts were synthesized in vitro using the T7 MegaScript transcription kit (Ambion, Austin, Tex.) according to manufacturer's directions. In vitro transcripts of the cDNA were transfected into the human hepatoma cell line, HUH-7. […] Resulting cell lines were characterized for positive and negative strand RNA production and protein production over time.
The HCV replicon FRET assay was developed to monitor the inhibitory effects of compounds described in the disclosure on HCV viral replication. HUH-7 cells, constitutively expressing the HCV replicon, were grown in Dulbecco's Modified Eagle Media (DMEM) (Gibco-BRL) containing 10% Fetal calf serum (FCS) (Sigma) and 1 mg/ml G418 (Gibco-BRL). Cells were seeded the night before (1.5×10^4 cells/well) in 96-well tissue-culture sterile plates. Compound and no compound controls were prepared in DMEM containing 4% FCS, 1:100 Penicillin/Streptomysin (Gibco-BRL), 1:100 L-glutamine and 5% DMSO in the dilution plate (0.5% DMSO final concentration in the assay). Compound/DMSO mixes were added to the cells and incubated for 4 days at 37° C. After 4 days, cells were first assessed for cytotoxicity using alamar Blue (Trek Diagnotstic Systems) for a CC50 reading. The toxicity of compound (CC50) was determined by adding 1/10th volume of alamar Blue to the media incubating the cells. After 4 h, the fluorescence signal from each well was read, with an excitation wavelength at 530 nm and an emission wavelength of 580 nm, using the Cytofluor Series 4000 (Perspective Biosystems). Plates were then rinsed thoroughly with Phosphate-Buffered Saline (PBS) (3 times 150 μl). The cells were lysed with 25 μl of a lysis assay reagent containing an HCV protease substrate (5× cell Luciferase cell culture lysis reagent (Promega #E153A) diluted to 1× with distilled water, NaCl added to 150 mM final, the FRET peptide substrate (as described for the enzyme assay above) diluted to 10 μM final from a 2 mM stock in 100% DMSO. […]. The plate was then placed into the Cytofluor 4000 instrument which had been set to 340 nm excitation/490 nm emission, automatic mode for 21 cycles and the plate read in a kinetic mode. EC50 determinations were carried out as described for the IC50 determinations.

Row | SMILES | IC50 [1] | EC50 [2]
1 | C=C[C@@H]1C[C@]1(NC(=O)[C@@H]1C[C@@](O)(c2cccc(CN3CCCC3)c2)CN1C(=O)[C@@H](NC(=O)OC(C)(C)C)C(C)(C)C)C(=O)NS(=O)(=O)C1CC1 [Compound 17] | 100 to 1000 nM | > 10000 nM
2 | C=C[C@@H]1C[C@]1(NC(=O)[C@@H]1C[C@@](O)(c2ccc3ccccc3c2)CN1C(=O)[C@@H](NC(=O)OC(C)(C)C)C(C)(C)C)C(=O)NS(=O)(=O)C1CC1 [Compound 5] | 1 to 100 nM | 10 to 1000 nM
3 | C=C[C@@H]1C[C@]1(NC(=O)[C@@H]1C[C@@](O)(c2cc(F)ccc2OC)CN1C(=O)[C@@H](NC(=O)OC(C)(C)C)C(C)(C)C)C(=O)NS(=O)(=O)C1CC1 [Compound 25] | 100 to 1000 nM | 1000 to 10000 nM
4 | C=C[C@@H]1C[C@]1(NC(=O)[C@@H]1C[C@@H](c2ccccc2)CN1C(=O)[C@@H](NC(=O)OC(C)(C)C)C(C)(C)C)C(=O)NS(=O)(=O)C1CC1 [Compound 1] | 100 to 1000 nM | 1000 to 10000 nM
5 | C=C[C@@H]1C[C@]1(NC(=O)[C@@H]1C[C@@H](Cc2ccccc2)CN1C(=O)[C@@H](NC(=O)OC(C)(C)C)C(C)(C)C)C(=O)NS(=O)(=O)C1CC1 [Compound 2] | > 1000 nM | > 10000 nM
6 | C=C[C@@H]1C[C@]1(NC(=O)[C@@H]1C[C@@](O)(c2cccc(OC)c2)CN1C(=O)[C@@H](NC(=O)OC(C)(C)C)C(C)(C)C)C(=O)NS(=O)(=O)C1CC1 [Compound 11] | 1 to 100 nM | 1000 to 10000 nM
7 | C=C[C@@H]1C[C@]1(NC(=O)[C@@H]1C[C@@](O)(c2cc(C)cc(C)c2)CN1C(=O)[C@@H](NC(=O)OC(C)(C)C)C(C)(C)C)C(=O)NS(=O)(=O)C1CC1 [Compound 21] | 1 to 100 nM | 1000 to 10000 nM
8 | C=C[C@@H]1C[C@]1(NC(=O)[C@@H]1C[C@@](O)(c2cccc(C)c2)CN1C(=O)[C@@H](NC(=O)OC(C)(C)C)C(C)(C)C)C(=O)NS(=O)(=O)C1CC1 [Compound 13] | 1 to 100 nM | 1000 to 10000 nM
9 | C=C[C@@H]1C[C@]1(NC(=O)[C@@H]1C[C@@](O)(c2ccc(C)c(F)c2)CN1C(=O)[C@@H](NC(=O)OC(C)(C)C)C(C)(C)C)C(=O)NS(=O)(=O)C1CC1 [Compound 23] | 100 to 1000 nM | 1000 to 10000 nM
10 | C=C[C@@H]1C[C@]1(NC(=O)[C@@H]1C[C@@](O)(c2ccc(OC)cc2)CN1C(=O)[C@@H](NC(=O)OC(C)(C)C)C(C)(C)C)C(=O)NS(=O)(=O)C1CC1 [Compound 7] | 100 to 1000 nM | 1000 to 10000 nM
11 | C=C[C@@H]1C[C@]1(NC(=O)[C@@H]1C[C@@](O)(c2cccc(-c3ccc(OC)cc3)c2)CN1C(=O)[C@@H](NC(=O)OC(C)(C)C)C(C)(C)C)C(=O)NS(=O)(=O)C1CC1 [Compound 8] | 100 to 1000 nM | 1000 to 10000 nM
12 | C=C[C@@H]1C[C@]1(NC(=O)[C@@H]1C[C@@](O)(c2cccc(OC(C)C)c2)CN1C(=O)[C@@H](NC(=O)OC(C)(C)C)C(C)(C)C)C(=O)NS(=O)(=O)C1CC1 [Compound 15] | 100 to 1000 nM | 1000 to 10000 nM
13 | C=C[C@@H]1C[C@]1(NC(=O)[C@@H]1C[C@@](O)(c2ccccc2CN2CCOCC2)CN1C(=O)[C@@H](NC(=O)OC(C)(C)C)C(C)(C)C)C(=O)NS(=O)(=O)C1CC1 [Compound 20] | 100 to 1000 nM | 1000 to 10000 nM
14 | C=C[C@@H]1C[C@]1(NC(=O)[C@@H]1C[C@@](O)(c2ccc(F)c(C)c2)CN1C(=O)[C@@H](NC(=O)OC(C)(C)C)C(C)(C)C)C(=O)NS(=O)(=O)C1CC1 [Compound 22] | 100 to 1000 nM | 1000 to 10000 nM
15 | C=C[C@@H]1C[C@]1(NC(=O)[C@@H]1C[C@@](O)(c2cccc(CN3CCCCC3)c2)CN1C(=O)[C@@H](NC(=O)OC(C)(C)C)C(C)(C)C)C(=O)NS(=O)(=O)C1CC1 [Compound 18] | 100 to 1000 nM | > 10000 nM
16 | C=C[C@@H]1C[C@]1(NC(=O)[C@@H]1C[C@@](O)(c2cc(C)ccc2C)CN1C(=O)[C@@H](NC(=O)OC(C)(C)C)C(C)(C)C)C(=O)NS(=O)(=O)C1CC1 [Compound 24] | 100 to 1000 nM | 1000 to 10000 nM
17 | C=C[C@@H]1C[C@]1(NC(=O)[C@@H]1C[C@@](O)(c2cccc(F)c2)CN1C(=O)[C@@H](NC(=O)OC(C)(C)C)C(C)(C)C)C(=O)NS(=O)(=O)C1CC1 [Compound 10] | 1 to 100 nM | 1000 to 10000 nM
18 | C=C[C@@H]1C[C@]1(NC(=O)[C@@H]1C[C@@](O)(c2ccccc2)CN1C(=O)[C@@H](NC(=O)OC(C)(C)C)C(C)(C)C)C(=O)NS(=O)(=O)C1CC1 [Compound 4] | 100 to 1000 nM | 1000 to 10000 nM
19 | C=C[C@@H]1C[C@]1(NC(=O)[C@@H]1C[C@@](O)(c2ccc(F)cc2)CN1C(=O)[C@@H](NC(=O)OC(C)(C)C)C(C)(C)C)C(=O)NS(=O)(=O)C1CC1 [Compound 6] | 100 to 1000 nM | 1000 to 10000 nM
20 | C=CC[C@]1(O)C[C@@H](C(=O)N[C@]2(C(=O)NS(=O)(=O)C3CC3)C[C@H]2C=C)N(C(=O)[C@@H](NC(=O)OC(C)(C)C)C(C)(C)C)C1 [Compound 9] | > 1000 nM | > 10000 nM
